In patent US20220056018A1, “SREBP INHIBITORS COMPRISING A THIOPHENE CENTRAL RING” (Capulus Therapeutics, LLC, priority 2019, published 2022):

How the values were obtained:
[1] = Stability in human liver microsomes; type: in vitro ADME; conditions: 37° C., NADPH
Protocol: Half-Life Human Microsomes:
(§1) Compounds were evaluated for stability in human liver microsomes. A 10 mM stock solution of the compound being evaluated was prepared in DMSO and diluted with water:acetonitrile (1:1) to a concentration of 1 mM. A working concentration of 100 μM was prepared by further dilution with water:acetonitrile (1:1). To make the preincubation mixture, 2.5 μL of the diluted compound was combined with 75 μL of human liver microsomes at 3.33 mg/mL, and 85 μL of 100 mM potassium phosphate buffer, and this mixture was pre-incubated for 10 min at 37° C. To make the 60 minute mixture without cofactor, 32.5 μL of the preincubation mixture was combined with 17.5 μL of 100 mM potassium phosphate buffer and incubated for 60 min at 37° C. To make the 0 min sample with cofactor (NADPH), 16.25 μL of the preincubation mixture was combined with 200 μL of acetonitrile containing internal standard and 8.75 μL of cofactor (NADPH). To make the incubation mixture, 62 μL of cofactor (2.85 mM) was combined with the remaining incubation mixture, and incubated for 60 min at 37° C. To prepare the sample mixture to be evaluated, 25 μL incubation mixture was combined with 200 μL of acetonitrile containing internal standard and vortexed for 5 min at 1200 rpm, then centrifuged for 10 min at 4000 rpm. The supernatant was diluted 2 fold with water and injected on LC-MS/MS. The sample mixture was evaluated by LC-MS/MS using 10 mM ammonium acetate with 0.100 FA as the aqueous mobile phase, and methanol as the organic mobile phase.

[2] = Stability in mouse liver microsomes; type: in vitro ADME
Protocol: as §1
Half-Life Mouse Microsomes:
Compounds were evaluated in mouse liver microsomes following a similar procedure as described above for human liver microsomes. A similar procedure could be used to evaluate compounds in rat liver microsomes.

SREBP = test: Reporter Screening Assay (SRE-luciferase reporter, HepG2); type: cell-based; conditions: Homo sapiens; SRE-luciferase reporter HepG2 cells, 24 hours, 0.01 uM to 10 uM; read-out: I: Reporter Screening Assay (Ave EC50 (nM))
Protocol: Reporter Screening Assay: This assay was used to evaluate the effect on transcriptional activity SREBP of selected compounds using an SRE-luciferase reporter construct. On day 1, 10,000 cells were seeded in a 96 well (white) plate as per the plate map in Growth media without antibiotics. Cells were incubated at 37° C. for 8 hours. After 8 hours, cells were washed with DPBS for complete removal of FBS. DPBS was completely removed and Growth media was replaced with phenol free treatment medium (90 μl) with different FBS concentrations. The cells were then incubated at 37° C. for 24 hours with varying doses (0.01 uM to 10 uM) of compounds. Then a Luciferase assay was performed.
Reagents for performing Luciferase assay were stored at −20° C. To a tube of lyophilized assay substrate was added 1 mL Substrate Solvent and mixed well. The Substrate tube after reconstitution was covered with aluminum foil so as to keep it protected from light. The assay buffer was thawed to room temperature. To 20 mL Assay Buffer was added 200 μL of reconstituted 100× Substrate and mixed well. The reconstituted substrate as well as the assay solution (buffer+substrate) was protected from light throughout the procedure by keeping it covered with aluminum foil. Using a multi-channel pipette, 100 μL Assay Solution (buffer+substrate) was added directly to each sample well in Plate 1, which was incubated for 30 min (plate was covered with aluminum foil). After 30 min incubation, the plate was read for total luminescence. Each well was read for 2 seconds in a plate luminometer. (Microplate reader Envision Microplate reader from Perkin Elmer). Precaution was taken to incubate plate exactly for 30 min prior to reading on the plate reader.
SREBPv1 Reporter cell line: HepG2—#32251. Growth Medium: MEM (Corning 10-010), 10% FBS, 1% GlutaMax (Invitrogen Catalog #35050061), […] (Invitrogen Catalog # A1113803) and 1% Penicillin-Streptomycin (Pen-Strep). Treatment Media: Phenol-free MEM (Invitrogen Catalog #51200-038) and 1% GlutaMax (Invitrogen Catalog #35050061). Luciferase Assay: LightSwitch Luciferase Assay Kit (Catalog #32032). LDH assay: Pierce LDH Cytotoxicity Assay Kit (Catalog # SD249616).

Structure (SMILES)	percent of compound remaining after 60 min in human liver microsomes [1]	percent parent remaining after 60 min in liver microsomes [2]	EC50 (SREBP)
CC(C)(O)C(O)c1cc(-c2csc(-c3ccc(NS(C)(=O)=O)cc3Cl)c2)ccn1 (stereo not drawn) [Compound I-9075, N-(3-chloro-4-(4-(2-(1,2-dihydroxy-2-methylpropyl)pyridin-4-yl)thiophen-2-yl)phenyl)methanesulfonamide]	+++ (>60.1 = +++)	+++ (>60.1 = +++)	> 500 nM
CC(C)(O)c1cc(-c2csc(-c3ccc(NS(C)(=O)=O)cc3Cl)c2)ccn1 [Compound I-9064, N-(3-chloro-4-(4-(2-(2-hydroxypropan-2-yl)pyridin-4-yl)thiophen-2-yl)phenyl)methanesulfonamide]	+++ (>60.1 = +++)	+++ (>60.1 = +++)	< 249 nM
CC(C)(C)c1cc(-c2csc(-c3ccc(NC(=O)NC4CCNCC4)cc3Cl)c2)ccn1 [Compound I-8755, 1-(4-(4-(2-(tert-butyl)pyridin-4-yl)thiophen-2-yl)-3-chlorophenyl)-3-(piperidin-4-yl)urea]	+++ (>60.1 = +++)	+++ (>60.1 = +++)	> 500 nM
Cc1sc(-c2ccc(NS(C)(=O)=O)cc2Cl)cc1-c1ccnc(CC(C)(C)O)c1 [Compound I-9091, N-(3-chloro-4-(4-(2-(2-hydroxy-2-methylpropyl)pyridin-4-yl)-5-methylthiophen-2-yl)phenyl)methanesulfonamide]	+++ (>60.1 = +++)	+++ (>60.1 = +++)	> 500 nM
CC(O)(CO)c1cc(-c2csc(-c3ccc(NS(C)(=O)=O)cc3Cl)c2)ccn1 (stereo not drawn) [Compound I-9088, N-(3-chloro-4-(4-(2-(1,2-dihydroxypropan-2-yl)pyridin-4-yl)thiophen-2-yl)phenyl)methanesulfonamide]	+++ (>60.1 = +++)	+++ (>60.1 = +++)	> 500 nM
CS(=O)(=O)Nc1ccc(-c2cc(-c3ccnc(O[C@@H]4CCC[C@@H]4O)c3)cs2)c(Cl)c1 [Compound I-9111, N-(3-chloro-4-(4-(2-(((1R,2S)-2-hydroxycyclopentyl)oxy)pyridin-4-yl)thiophen-2-yl)phenyl)methanesulfonamide]	+++ (>60.1 = +++)	+++ (>60.1 = +++)	
CS(=O)(=O)Nc1ccc(-c2cc(-c3ccnc(O[C@@H]4COC[C@@H]4O)c3)cs2)c(Cl)c1 [Compound I-9108, N-(3-chloro-4-(4-(2-(((3R,4S)-4-hydroxytetrahydrofuran-3-yl)oxy)pyridin-4-yl)thiophen-2-yl)phenyl)methanesulfonamide]	+++ (>60.1 = +++)	+++ (>60.1 = +++)	> 500 nM
CC(C)(C)c1cc(-c2csc(-c3ccc(S(=O)(=O)CC4CCCC4)cc3)c2)ccn1 [Compound I-8729, 2-(tert-butyl)-4-(5-(4-((cyclopentylmethyl)sulfonyl)phenyl)thiophen-3-yl)pyridine]	+ (0-30 = +)	+ (0-30 = +)	> 500 nM
CN(C(=O)OC1CC1)c1ccc(-c2cc(-c3ccnc(C4(CO)CC4)c3)cs2)c(Cl)c1 [Compound I-9042, Cyclopropyl (3-chloro-4-(4-(2-(1-(hydroxymethyl)cyclopropyl)pyridin-4-yl)thiophen-2-yl)phenyl)(methyl)carbamate]	++ (30.1-60 = ++)	+++ (>60.1 = +++)	< 249 nM
CS(=O)(=O)Nc1ccc(-c2cc(-c3ccnc(OCC4COCCO4)c3)cs2)c(Cl)c1 (stereo not drawn) [Compound I-9113, N-(4-(4-(2-((1,4-dioxan-2-yl)methoxy)pyridin-4-yl)thiophen-2-yl)-3-chlorophenyl)methanesulfonamide]	++ (30.1-60 = ++)	+++ (>60.1 = +++)	
CS(=O)(=O)Nc1ccc(-c2cc(-c3ccnc(OCCC4(O)COC4)c3)cs2)c(Cl)c1 [Compound I-9112, N-(3-chloro-4-(4-(2-(2-(3-hydroxyoxetan-3-yl)ethoxy)pyridin-4-yl)thiophen-2-yl)phenyl)methanesulfonamide]	+++ (>60.1 = +++)	+++ (>60.1 = +++)	
O=S(=O)(Nc1ccc(-c2cc(-c3ccnc(C4(CO)CC4)c3)cs2)c(Cl)c1)NC1CC1 [Compound I-9090]	++ (30.1-60 = ++)	++ (30.1-60 = ++)	

The next lines start with the values.

percent of compound remaining after 60 min in human liver microsomes [1]	percent parent remaining after 60 min in liver microsomes [2]	EC50 (SREBP)	Structure (SMILES)
+++ (>60.1 = +++)	++ (30.1-60 = ++)	> 500 nM	O=C(Nc1ccc(-c2cc(-c3ccnc(C4(CO)CC4)c3)cs2)c(Cl)c1)OC1CC1 [Compound I-9082, cyclopropyl (3-chloro-4-(4-(2-(1-(hydroxymethyl)cyclopropyl)pyridin-4-yl)thiophen-2-yl)phenyl)carbamate]
+++ (>60.1 = +++)	+++ (>60.1 = +++)	250 to 500 nM	CC(C)OC(=O)Nc1ccc(-c2cc(-c3ccnc(C(C)(C)CO)c3)cs2)c(Cl)c1 [Compound I-8907, Isopropyl (3-chloro-4-(4-(2-(1-hydroxy-2-methylpropan-2-yl)pyridin-4-yl)thiophen-2-yl)phenyl)carbamate]
+++ (>60.1 = +++)	+++ (>60.1 = +++)	< 249 nM	CC(C)OC(=O)Nc1ccc(-c2cc(-c3ccnc(C4CC4)c3)cs2)c(Cl)c1 [Compound I-8966, Isopropyl (3-chloro-4-(4-(2-cyclopropylpyridin-4-yl)thiophen-2-yl)phenyl)carbamate]
++ (30.1-60 = ++)	++ (30.1-60 = ++)		CC(C)(CO)c1cc(-c2cc(-c3ccc(NC(=O)OC4CC4)cc3Cl)cs2)ccn1 [Compound I-9161, Cyclopropyl(3-chloro-4-(5-(2-(1-hydroxy-2-methylpropan-2-yl)pyridin-4-yl)thiophen-3-yl)phenyl)carbamate]
+ (0-30 = +)	+++ (>60.1 = +++)		CC(C)NS(=O)(=O)Nc1ccc(-c2csc(-c3ccnc(C(C)(C)CO)c3)c2)c(Cl)c1 [Compound I-9162, 2-(4-(4-(2-chloro-4-(((isopropylamino)thio)amino)phenyl)thiophen-2-yl)pyridin-2-yl)-2-methylpropan-1-ol, S,S-dioxide]
+++ (>60.1 = +++)	+++ (>60.1 = +++)	250 to 500 nM	CCOC(=O)Nc1ccc(-c2cc(-c3ccnc(C(C)(C)C)c3)cs2)c(Cl)c1 [Compound I-8735, Ethyl (4-(4-(2-(tert-butyl)pyridin-4-yl)thiophen-2-yl)-3-chlorophenyl)carbamate]
